One data set concerns KP lung tumor cells. Kind of data set: Cell survival assay (MTS), KP cells. Particulars: increasing concentrations of cisplatin alone or with 2nM 29P. Format: cell-based, mouse. As to the method: The lung adenocarcinoma cell line KP53 F1 was derived from lung tumors of C57BL/6 KP mice and was kindly provided by Dr. S A. Quezada, UCL Cancer Centre (University College London, UK).
(§1) A549 or KP cell survival was analyzed using the CellTiter96® Aqueous One Solution Reagent (Promega #G3582) according to the manufacturer's instructions. Briefly, 1000 cells were seeded into 96-well plated. Cells were treated the following day and the solution reagent was added after 72 hours of treatment. Plates were read using a wavelength of 490 nm.

The subject of a further data set is KP tumors. Format: in vivo, mouse.
The nature of data set [1]: Side effects in C57/BL6 mice: body weight, lymphocytes, creatinine. In kind it is in vivo, mouse. Particulars: Cis^3/anti-PD-1/anti-CTLA-4 and 29P, compared with Cis^6/anti-PD-1/anti-CTLA-4, placebo or single agent 29P. Here is the method:
FIG. 3 illustrates that 29P treatment sensitizes KP tumors to current immunotherapies and chemotherapies. […] (A, B, E) Representative images of hematoxylin-eosin stained lungs and quantification of number of tumor foci and tumor burden. […] (D) C57/BL6 mice were treated with Placebo, 29P, Cis^6/α-PD-1+α-CTLA-4 and Cis^3/α-PD-1+α-CTLA-4/29P. […] (F) Representative images of hematoxylin-eosin stained lungs (left) and quantification of mouse body weights and tumor burden (right). N.S. Not significant/p>0.05, *p<0.05, **p<0.01, ***p<0.001. (A,B,D-F) ordinary One-way ANOVA with Tukey's multiple comparison test, for not normally distributed data Kruskal-Wallis test with Dunn's multiple comparison test, (C) Mantel-Cox test, n=5-8 per treatment. Scale bars: 5 mm in H&E staining.

Data set [2] has as its system human lung adenocarcinoma (A549) cells. Kind of data set: Cell survival assay (MTS), A549 cells. Format: cell-based. Particulars: increasing concentrations of cisplatin alone or with 2nM 29P. As to the method:
A549 and LLC cells were purchased from ATCC. Mouse Lung Endothelial cells (EC) were obtained and cultured as previously described (34).
as §1

The subject of a further data set is KP tumor burdened lung. Description: Flow cytometry of lungs bearing KP tumors. In kind it is in vivo, mouse. Conditions: cisplatin treatment. As to the method:
Tumors were minced and incubated at 37° C. for 20 min in an enzymatic cocktail containing DNase (0.5 mg/ml, Sigma). Liberase (2 mg/ml, Sigma) in HBSS (Sigma) was used to make a single cell suspension for pancreatic tumors. For breast tumors, collagenase/dispase (1 mg/ml, Sigma) in PBS, was used to make a single cell suspension. Cells were passed through a […] filter (BD Biosciences), washed in PBS supplemented with 2% foetal bovine serum and 2 mM EDTA, counted and used immediately for flow cytometry. Before cells were stained with specific antibodies, nonspecific binding sites were blocked with Fcγ R III/II TruStain fcX (93, Biolegend). Staining was performed in PBS supplemented with 2% foetal bovine serum and 2 mM EDTA. The following fluorochrome-conjugated antibodies were used: anti-CD45 (30-F11), anti-CD3 (145-2C11), anti-CD4 (L3T4), anti-CD8 (53-6.7), anti-CD69 (H1.2F3), anti-CD44 (IM7), anti-CD62L (MEL-14), anti-CD19 (6D5), anti-CD11b (M1/70), anti-F4/80 (BM8) from Biolegend; anti-PD1 (RMP1-30), anti-Gr1 (RB6-8C5) and anti-Ly6C (HK1.4) from eBioscience. Fixable viability dye (FVD) (eBioscience) was used to discriminate between live and dead cells. Acquisition and analyses were performed on a BD LSRII system using BD […] software (BD Biosciences). The percentage of cells were analysed using FlowJo software (version 10.0.8 tree Star). Dead cells were excluded from the analysis on the basis of FVD and SSC gating. Cell doublets were excluded from the analysis by gating for FSC area versus FSC width. CD45+ cells were used to include leukocytes only in the data analysis.

SMILES strings stand for the structures. Entries after “also recorded” stand apart in the source; their conditions may differ.

In the case of `CCCCCCOC(=O)N=C(NCCC[C@@H]1NC(=O)[C@@H](C(C)C)N(C)C(=O)[C@H](C)N(C)C(=O)[C@H](C)NC(=O)[C@H](CC(=O)OC)NC(=O)CNC1=O)NC(=O)OCCCCCC` [29P, c(*vR(Hoc)2GD(OMe)A*A)], the “cisplatin cytotoxicity with 29P addition (MTS cell viability)” value in the data set with KP lung tumor cells is listed as “independent of 29P addition”. Moreover, the “weight loss side effect” value in the data set on KP tumors (mouse, in vivo) was “without apparent adverse weight loss side effects”. Besides, in data set [1], the body weight result is reported as “restored; also recorded: significantly improved parameters”, the creatinine levels result is “restored; also recorded: significantly improved parameters” and the lymphocyte numbers entry is listed as “restored; also recorded: significantly improved parameters”. The “cisplatin cytotoxicity with 29P addition (MTS cell viability)” value in data set [2] is “independent of 29P addition”.

For the compound `N.N.[Cl][Pt][Cl]` [cisplatin], in the data set with KP tumors (KP mice, Cis^6 (cisplatin 6 mg/kg) alone), the anti-tumor effect result is given as “clear anti-tumor effect”. For the same compound, in the data set on KP tumor burdened lung, the “T cell (CD4+ and CD8+) numbers” value is recorded as “increased”; the “myeloid cell (Gr1+, Natural killer cells, dendritic cells, monocytes) numbers” value is “increased”; the tumor associated macrophages result is reported as “a reduction”.

Values taken from patent US20240181001A1, “TREATMENT” (Queen Mary University London, priority 2021, published 2024).
